Legend:
[1] = system: L6-GLUT4myc cells transiently transfected with pCDNA5/TO/GFP; experiment: Functionality of the T-REx system: tetracycline-inducible GFP expression plasmid; format: cell-based, rat; details: doxycycline 1 μg/ml versus absence of doxycycline
Method: FIG. 4: Functionality of the T-Rex system. […]T4myc cells were transiently transfected with […] pCDNA5/TO/GFP. In the absence of doxycycline only a minor number of cells express GFP (A). Addition of doxycycline (1μg/ml) increases the number of GFP positive cells up to about 10 fold (B). L6 cells stably expressing GLUT4myc ([…]T4myc, described in Wang et al. 1998) were subsequently used for the tet-inducible expression of AS160 protein. For this purpose the T-REx system from Invitrogen was used. The regulatory plasmid in this system controls the constitutive expression of the tet-repressor (tet-R) under the control of a CMV (cytomegalovirus) promoter. In the absence of tetracyline (or doxycycline) the repressor binds to specific tetracycline-operator sequences (TetO2) and thereby represses expression. Addition of tetracycline (or doxycycline) induces expression of the protein of interest. To allow a stable integration of the tet-system in […]T4myc cells the tet-repressor was islolated from pCDNA3.1 (+)/TR (Invitrogen) and cloned into the Nhel and Notl sites of pIRESpuro2 (FIG. 3). Subsequently pIRESpuro2/TR was transfected into […]T4myc cells. Clones stably expressing the regulatory plasmid were selected with 0.5 μg/ml puromycin (InvivoGen). Functionality of the tet-repressor was controlled with a tetracycline-inducible GFP expression plasmid (pCDNA5/TO-GFP). […]

[2] = system: L6-GLUT4myc cells containing AS160; experiment: Uptake of 2-deoxyglucose in response to insulin (Cytostar-T scintillating microplates); format: cell-based, rat; details: FIG. 6
Method: For all examples the L6-GLUT4myc cells containing AS160 were grown in MEMα (PAN) supplemented with 10% fetal calf serum (FCS) (PAA, tet-free), 2 μg/ml blasticidin (Calbiochem), 0.5 μg/ml puromycin (InvivoGen), 200 μg/ml hygromycin (Invitrogen). Expression of AS160 was induced with 1 μg/ml doxycyclin (Sigma). L6-wildtype (wt) (ATCC: CRL-1458) cells were grown in MEMα+GlutaMax (Gibco) supplemented with 10% FCS (PAA, tet-free) and 1% penicillin/streptomycin (PAA). L6-GLUT4myc cells were grown in MEMα+GlutaMax (Gibco) supplemented with 10% FCS (PAA, tet-free), 1% penicillin/streptomycin (PAA) and 2 μg/ml blasticidin (Calbiochem). Expression of AS160 was induced by inbubation of the cells for 48 hours with 1 μg/ml doxycycline (Sigma). All cells were grown at 37° C. and 5% CO2 L6-GLUT4myc cells containing AS160 were incubated in starve medium (MEMα) 3-4 hours prior to each experiment.
To examine glucose uptake of the cells, the respective cells were plated in 96 well Cytostar-T scintillating microplates (Amersham/GE). After 48 hours cells were serum-starved (3-4 hours) and treated with the indicated Insuman (human insulin) concentartions a for 20 minutes. […] Nonspecific uptake was determined in the presence of 40 μM cytochalasin B (Calbiochem). […] Uptake of 2-deoxyglucose is measured as counts per […] and presented as fold over basal. […]

Compound: C[C@H]1c2cccc(O)c2C(=O)C2=C(O)[C@]3(O)C(=O)C(C(N)=O)=C(O)[C@@H](N(C)C)[C@@H]3[C@@H](O)[C@@H]21 [doxycycline]
- Increase of the number of GFP positive cells [1]: about 10 fold

Compound: insulin: Insuman (human insulin)
- Uptake of 2-deoxyglucose, fold over basal ([2]; with expression of AS160 (isoform 1, doxycycline-induced), 100 nM insulin, 20 minutes): about 6 fold
- Uptake of 2-deoxyglucose, fold over basal (maximum) ([2]; without expression of AS160 (isoform 1), insulin 20 minutes): about 4 fold

— patent US20120108464A1, “TEST SYSTEMS, METHODS AND USES INVOLVING AS160 PROTEIN” (SANOFI-AVENTIS, priority 2009, published 2012)
